Common to all, as to assay: cell-based
The target of one assay is hNav1.3 (Homo sapiens, UniProt Q9NY46). Particulars: IonWorks Quattro, read-out: IWQ Use Nav1.3. (Patch clamp records ionic current or voltage across a cell membrane.)
The next assay concerns the target hNav1.7 (Homo sapiens, UniProt Q15858). Format: cell-based. As to conditions: IonWorks Quattro.
A further assay deals with hNav1.5 (Homo sapiens, UniProt Q14524). Particulars: IonWorks Quattro, read-out: IWQ Use Nav1.5.
Where [1] appears, read: use-dependent protocol, hNav1.3.
[2] abbreviates: use-dependent protocol, hNav1.7, read-out: IWQ Use Nav1.7.
The mark [3] stands for this setting: use-dependent protocol, hNav1.5.
Setting [4] is: use-dependent block, hNav1.7, read-out: IWQ Use Nav1.7.
Where [5] appears, read: use-dependent, […], read-out: IWQ Use Nav1.7 (μm).

pIC50: −log10 of the molar value. Like-named read-outs stand apart in the source and are kept apart here. Positions of bridges follow the written chain, without caps; N, C: chain ends. Non-standard residues stand in square brackets, D forms with d. Residues, ends and D or L forms follow the SMILES beside them. Phe(3,4-(OMe)2) = COc1ccc(C[C@H](N)C(=O)O)cc1OC; Nva = CCC[C@H](N)C(=O)O

Chain of hNav1.5 (Q14524 whole entry, looked up): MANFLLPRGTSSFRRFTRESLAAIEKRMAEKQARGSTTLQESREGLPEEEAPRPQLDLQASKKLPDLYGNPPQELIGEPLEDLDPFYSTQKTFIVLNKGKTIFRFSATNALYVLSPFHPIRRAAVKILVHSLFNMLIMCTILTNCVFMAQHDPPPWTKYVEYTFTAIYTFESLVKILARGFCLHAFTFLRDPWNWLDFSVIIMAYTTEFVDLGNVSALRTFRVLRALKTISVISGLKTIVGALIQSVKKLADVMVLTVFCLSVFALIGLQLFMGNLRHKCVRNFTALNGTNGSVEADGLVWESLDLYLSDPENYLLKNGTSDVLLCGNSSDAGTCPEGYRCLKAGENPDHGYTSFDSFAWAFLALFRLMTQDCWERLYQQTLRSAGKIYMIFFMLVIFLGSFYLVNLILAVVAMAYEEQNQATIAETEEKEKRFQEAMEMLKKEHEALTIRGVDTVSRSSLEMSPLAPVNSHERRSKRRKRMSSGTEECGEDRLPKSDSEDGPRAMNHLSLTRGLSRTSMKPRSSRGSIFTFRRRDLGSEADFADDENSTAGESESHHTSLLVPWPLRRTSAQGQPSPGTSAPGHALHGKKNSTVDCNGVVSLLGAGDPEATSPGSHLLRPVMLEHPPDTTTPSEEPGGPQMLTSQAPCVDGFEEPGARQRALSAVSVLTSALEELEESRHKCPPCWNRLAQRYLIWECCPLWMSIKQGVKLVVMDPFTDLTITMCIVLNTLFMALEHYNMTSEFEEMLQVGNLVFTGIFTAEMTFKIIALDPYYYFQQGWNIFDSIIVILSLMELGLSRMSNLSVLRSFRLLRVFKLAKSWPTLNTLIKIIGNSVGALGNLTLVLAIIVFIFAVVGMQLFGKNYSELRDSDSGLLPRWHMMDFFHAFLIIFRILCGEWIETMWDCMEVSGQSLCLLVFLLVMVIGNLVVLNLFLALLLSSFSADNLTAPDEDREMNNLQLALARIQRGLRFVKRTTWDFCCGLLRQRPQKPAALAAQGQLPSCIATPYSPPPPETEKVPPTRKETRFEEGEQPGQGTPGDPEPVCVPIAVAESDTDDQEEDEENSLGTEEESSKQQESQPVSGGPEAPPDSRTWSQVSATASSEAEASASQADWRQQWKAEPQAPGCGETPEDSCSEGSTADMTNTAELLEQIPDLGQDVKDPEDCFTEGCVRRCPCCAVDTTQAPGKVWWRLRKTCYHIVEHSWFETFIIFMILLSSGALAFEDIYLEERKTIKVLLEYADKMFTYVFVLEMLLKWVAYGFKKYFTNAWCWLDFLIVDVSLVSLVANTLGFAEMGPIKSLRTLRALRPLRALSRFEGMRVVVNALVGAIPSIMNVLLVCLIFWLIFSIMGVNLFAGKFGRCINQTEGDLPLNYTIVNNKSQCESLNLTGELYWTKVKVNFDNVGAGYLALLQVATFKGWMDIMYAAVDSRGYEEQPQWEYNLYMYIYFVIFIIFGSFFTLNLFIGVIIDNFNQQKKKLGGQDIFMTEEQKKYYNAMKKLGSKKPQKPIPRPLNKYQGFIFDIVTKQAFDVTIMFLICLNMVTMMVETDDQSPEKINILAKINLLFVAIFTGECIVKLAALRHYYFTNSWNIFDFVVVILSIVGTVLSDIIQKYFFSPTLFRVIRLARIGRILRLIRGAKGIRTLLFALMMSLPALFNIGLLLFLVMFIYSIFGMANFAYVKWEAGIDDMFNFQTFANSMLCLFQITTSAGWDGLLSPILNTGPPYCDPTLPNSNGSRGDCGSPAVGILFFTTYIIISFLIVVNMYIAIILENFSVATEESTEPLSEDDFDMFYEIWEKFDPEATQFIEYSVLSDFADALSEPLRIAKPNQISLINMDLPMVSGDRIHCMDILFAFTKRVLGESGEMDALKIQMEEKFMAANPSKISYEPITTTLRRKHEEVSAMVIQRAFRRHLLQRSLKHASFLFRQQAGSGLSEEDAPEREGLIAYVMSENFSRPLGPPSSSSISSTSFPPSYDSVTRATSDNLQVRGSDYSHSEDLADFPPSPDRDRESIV
Chain of hNav1.7 (Q15858 whole entry, looked up): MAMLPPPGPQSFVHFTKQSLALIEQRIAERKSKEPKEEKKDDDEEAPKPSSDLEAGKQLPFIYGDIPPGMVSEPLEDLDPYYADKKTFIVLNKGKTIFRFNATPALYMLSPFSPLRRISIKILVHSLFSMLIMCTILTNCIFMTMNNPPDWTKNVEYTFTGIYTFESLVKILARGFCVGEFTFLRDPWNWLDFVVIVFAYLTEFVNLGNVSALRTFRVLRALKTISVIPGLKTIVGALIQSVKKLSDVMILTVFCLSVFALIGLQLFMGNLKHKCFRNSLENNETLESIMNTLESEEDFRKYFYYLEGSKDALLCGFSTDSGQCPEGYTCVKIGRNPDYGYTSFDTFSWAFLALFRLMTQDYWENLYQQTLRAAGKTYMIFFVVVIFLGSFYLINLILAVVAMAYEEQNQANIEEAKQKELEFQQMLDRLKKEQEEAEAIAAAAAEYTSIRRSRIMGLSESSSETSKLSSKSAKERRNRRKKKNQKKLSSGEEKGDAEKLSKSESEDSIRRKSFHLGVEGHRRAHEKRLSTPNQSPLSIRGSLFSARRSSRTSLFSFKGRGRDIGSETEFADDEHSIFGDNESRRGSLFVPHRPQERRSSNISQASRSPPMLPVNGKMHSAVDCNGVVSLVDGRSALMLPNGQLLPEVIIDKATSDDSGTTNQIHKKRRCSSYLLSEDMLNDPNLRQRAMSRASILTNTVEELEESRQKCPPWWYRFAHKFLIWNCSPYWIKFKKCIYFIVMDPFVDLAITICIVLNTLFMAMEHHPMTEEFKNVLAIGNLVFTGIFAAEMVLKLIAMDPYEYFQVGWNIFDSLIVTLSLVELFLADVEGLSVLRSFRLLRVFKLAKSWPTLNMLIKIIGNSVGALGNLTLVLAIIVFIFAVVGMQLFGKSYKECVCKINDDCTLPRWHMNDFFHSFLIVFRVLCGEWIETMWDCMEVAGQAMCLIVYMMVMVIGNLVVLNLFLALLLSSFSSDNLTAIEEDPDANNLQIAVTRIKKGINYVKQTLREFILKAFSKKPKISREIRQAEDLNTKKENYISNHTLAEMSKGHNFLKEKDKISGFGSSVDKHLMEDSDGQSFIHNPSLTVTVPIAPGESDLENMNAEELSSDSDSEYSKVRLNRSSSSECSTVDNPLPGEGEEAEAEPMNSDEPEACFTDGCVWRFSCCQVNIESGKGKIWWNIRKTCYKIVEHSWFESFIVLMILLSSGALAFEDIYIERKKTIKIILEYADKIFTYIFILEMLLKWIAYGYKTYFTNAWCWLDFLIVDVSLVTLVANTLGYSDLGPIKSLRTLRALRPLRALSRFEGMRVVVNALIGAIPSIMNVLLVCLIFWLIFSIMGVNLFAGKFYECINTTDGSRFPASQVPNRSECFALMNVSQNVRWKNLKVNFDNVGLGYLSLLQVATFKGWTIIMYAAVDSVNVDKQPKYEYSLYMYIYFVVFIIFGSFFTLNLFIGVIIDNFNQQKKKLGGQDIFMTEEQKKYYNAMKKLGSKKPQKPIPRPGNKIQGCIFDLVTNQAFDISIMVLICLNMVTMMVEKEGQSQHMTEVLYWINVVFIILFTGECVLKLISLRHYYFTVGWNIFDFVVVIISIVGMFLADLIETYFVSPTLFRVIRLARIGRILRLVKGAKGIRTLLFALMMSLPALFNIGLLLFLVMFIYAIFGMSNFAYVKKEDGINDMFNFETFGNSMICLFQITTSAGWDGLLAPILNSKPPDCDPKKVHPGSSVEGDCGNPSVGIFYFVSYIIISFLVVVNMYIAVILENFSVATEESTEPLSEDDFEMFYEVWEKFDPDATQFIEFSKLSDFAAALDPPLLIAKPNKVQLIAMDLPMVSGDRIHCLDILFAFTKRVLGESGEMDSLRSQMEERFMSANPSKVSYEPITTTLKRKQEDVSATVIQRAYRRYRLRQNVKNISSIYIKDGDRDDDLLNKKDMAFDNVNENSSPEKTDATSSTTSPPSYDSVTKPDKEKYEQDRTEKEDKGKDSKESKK

On to `CCC[C@@H]1NC(=O)CNC(=O)[C@H](CC(C)C)NC(=O)[C@@H](NC(=O)[C@@H](N)CC(=O)O)CSSC[C@@H]2NC(=O)[C@@H]3CSSC[C@@H](C(=O)N[C@@H](CCCCN)C(=O)N[C@@H](Cc4ccc(O)cc4)C(=O)N[C@H](C(=O)N[C@@H](Cc4ccccc4)C(N)=O)C(C)C)NC(=O)[C@H](Cc4c[nH]c5ccccc45)NC(=O)[C@H](CCC(=O)O)NC(=O)[C@H](Cc4c[nH]cn4)NC(=O)[C@H]([C@@H](C)O)NC(=O)[C@H](CCCNC(=N)N)NC(=O)[C@H](CO)NC(=O)[C@H](CSSC[C@H](NC(=O)[C@H](CCCCN)NC(=O)[C@H](CCCNC(=N)N)NC(=O)[C@H](CCSC)NC1=O)C(=O)N[C@@H]([C@@H](C)CC)C(=O)N1CCC[C@H]1C(=O)N[C@@H](CC(=O)O)C(=O)N[C@@H](CC(N)=O)C(=O)N[C@@H](CC(=O)O)C(=O)N[C@@H](CCCCN)C(=O)N3)NC(=O)[C@H](C(C)C)NC(=O)[C@H](CC(C)C)NC(=O)[C@H](CC(N)=O)NC(=O)[C@@H]1CCCN1C(=O)[C@H](CCCNC(=N)N)NC2=O` [compound 705] (H-DCLG[Nva]MRKCIPDNDKCCRPNLVCSRTHEWCKYVF-NH2; disulfide 2-17, 9-23, 16-30), for which the results for the pIC50 at hNav1.3 (setting [1]), on hNav1.7 (setting [2]) and on hNav1.5 (setting [3]) were 5.47, 6.37 and 4.48, respectively.

For the molecule `CC[C@H](C)[C@@H]1NC(=O)[C@@H]2CSSC[C@@H]3NC(=O)[C@H](C(C)C)NC(=O)[C@H](CC(C)C)NC(=O)[C@H](CC(N)=O)NC(=O)[C@@H]4CCCN4C(=O)[C@H](CCCNC(=N)N)NC(=O)[C@H](CSSC[C@H](NC(=O)[C@@H](N)CC(=O)O)C(=O)N[C@@H](CC(C)C)C(=O)NCC(=O)N[C@@H](C)C(=O)N[C@@H](Cc4ccccc4)C(=O)N[C@@H](CCCNC(=N)N)C(=O)N[C@@H](CCCCN)C(=O)N2)NC(=O)[C@H](CSSC[C@@H](C(=O)N[C@@H](CCCCN)C(=O)N[C@@H](Cc2ccc(O)cc2)C(=O)N[C@H](C(=O)N[C@@H](Cc2ccccc2)C(=O)O)C(C)C)NC(=O)[C@H](Cc2c[nH]c4ccccc24)NC(=O)[C@H](CCCNC(=N)N)NC(=O)[C@H](Cc2c[nH]cn2)NC(=O)[C@H]([C@@H](C)O)NC(=O)[C@H](CCCNC(=N)N)NC(=O)[C@H](CO)NC3=O)NC(=O)[C@H](CCCCN)NC(=O)[C@H](CC(=O)O)NC(=O)[C@H](CO)NC(=O)[C@H](CC(=O)O)NC(=O)[C@@H]2CCCN2C1=O` [compound 849], the pIC50 on hNav1.3 (use-dependent block, hNav1.3) was 5.96; on hNav1.7 (setting [4]) it was below 5.30; at hNav1.5 (use-dependent block, hNav1.5), below 5.30.

Turning to `CC[C@H](C)[C@@H]1NC(=O)[C@@H]2CSSC[C@@H]3NC(=O)[C@H](C(C)C)NC(=O)[C@H](CC(C)C)NC(=O)[C@H](CC(N)=O)NC(=O)[C@@H]4CCCN4C(=O)[C@H](CCCNC(=N)N)NC(=O)[C@H](CSSC[C@H](NC(=O)[C@@H](N)CC(=O)O)C(=O)N[C@@H](CC(C)C)C(=O)NCC(=O)N[C@@H](Cc4ccccc4)C(=O)N[C@@H](CCSC)C(=O)N[C@@H](CCCNC(=N)N)C(=O)N[C@@H](CCCCN)C(=O)N2)NC(=O)[C@H](CSSC[C@@H](C(=O)N[C@@H](CCCCN)C(=O)N[C@@H](Cc2ccc(O)cc2)C(=O)N[C@H](C(=O)N[C@@H](Cc2ccccc2)C(=O)N[C@@H](Cc2ccc(C(=O)O)cc2)C(N)=O)C(C)C)NC(=O)[C@H](Cc2c[nH]c4ccccc24)NC(=O)[C@H](CCCCN)NC(=O)[C@H](Cc2c[nH]cn2)NC(=O)[C@H]([C@@H](C)O)NC(=O)[C@H](CCCNC(=N)N)NC(=O)[C@H](CO)NC3=O)NC(=O)[C@H](CCCCN)NC(=O)[C@H](CC(=O)O)NC(=O)[C@H](CC(N)=O)NC(=O)[C@H](CC(=O)O)NC(=O)[C@@H]2CCCN2C1=O` [compound 413], the pIC50 at hNav1.3 (use-dependent, […]) is 5.27; at hNav1.7 (setting [5]), 5.94; at hNav1.5 (use-dependent, […]) it was 5.06.

For the molecule `CC[C@H](C)[C@@H]1NC(=O)[C@@H]2CSSC[C@@H]3NC(=O)[C@H](C(C)C)NC(=O)[C@H](CC(C)C)NC(=O)[C@H](CC(N)=O)NC(=O)[C@@H]4CCCN4C(=O)[C@H](CCCNC(=N)N)NC(=O)[C@H](CSSC[C@H](NC(=O)[C@@H](N)CC(=O)O)C(=O)N[C@@H](CC(C)C)C(=O)NCC(=O)N[C@@H](C4CCCCC4)C(=O)N[C@@H](CC(C)C)C(=O)N[C@@H](CCCNC(=N)N)C(=O)N[C@@H](CCCCN)C(=O)N2)NC(=O)[C@H](CSSC[C@@H](C(=O)N[C@@H](CCCCN)C(=O)N[C@@H](Cc2ccc(O)cc2)C(=O)N[C@H](C(=O)N[C@@H](Cc2ccccc2)C(N)=O)C(C)C)NC(=O)[C@H](Cc2c[nH]c4ccccc24)NC(=O)[C@H](CCCCN)NC(=O)[C@H](Cc2c[nH]cn2)NC(=O)[C@H]([C@@H](C)O)NC(=O)[C@H](CCCNC(=N)N)NC(=O)[C@H](CO)NC3=O)NC(=O)[C@H](CCCCN)NC(=O)[C@H](CC(=O)O)NC(=O)[C@H](CC(N)=O)NC(=O)[C@H](CC(=O)O)NC(=O)[C@@H]2CCCN2C1=O` [compound 664], the pIC50 at hNav1.3 (setting [1]) is 6.96; on hNav1.7 (setting [2]), 7.72; on hNav1.5 (setting [3]), below 5.30.

`CC[C@H](C)[C@@H]1NC(=O)[C@@H]2CSSC[C@@H]3NC(=O)[C@H](C(C)C)NC(=O)[C@H](CC(C)C)NC(=O)[C@H](CC(N)=O)NC(=O)[C@@H]4CCCN4C(=O)[C@H](CCCNC(=N)N)NC(=O)[C@H](CSSC[C@H](NC(=O)[C@@H](N)CC(=O)O)C(=O)N[C@@H](CC(C)C)C(=O)NCC(=O)N[C@@H](Cc4ccc(OC)c(OC)c4)C(=O)N[C@@H](Cc4ccccc4)C(=O)N[C@@H](CCCNC(=N)N)C(=O)N[C@@H](CCCCN)C(=O)N2)NC(=O)[C@H](CSSC[C@@H](C(=O)N[C@@H](CCCCN)C(=O)N[C@@H](Cc2ccc(O)cc2)C(=O)N[C@H](C(=O)N[C@@H](Cc2ccccc2)C(N)=O)C(C)C)NC(=O)[C@H](Cc2c[nH]c4ccccc24)NC(=O)[C@H](CCCCN)NC(=O)[C@H](Cc2c[nH]cn2)NC(=O)[C@H]([C@@H](C)O)NC(=O)[C@H](CCCNC(=N)N)NC(=O)[C@H](CO)NC3=O)NC(=O)[C@H](CCCCN)NC(=O)[C@H](CC(=O)O)NC(=O)[C@H](CC(N)=O)NC(=O)[C@H](CC(=O)O)NC(=O)[C@@H]2CCCN2C1=O` [compound 620] (H-DCLG[Phe(3,4-(OMe)2)]FRKCIPDNDKCCRPNLVCSRTHKWCKYVF-NH2; disulfide 2-17, 9-23, 16-30): the pIC50 at hNav1.3 (setting [1]) is 6.00; on hNav1.7 (setting [2]), 6.19; on hNav1.5 (setting [3]), 4.98.

Turning to `CC[C@H](C)[C@@H]1NC(=O)[C@@H]2CSSC[C@@H]3NC(=O)[C@H](C(C)C)NC(=O)[C@H](CC(C)C)NC(=O)[C@H](CC(N)=O)NC(=O)[C@@H]4CCCN4C(=O)[C@H](CCCNC(=N)N)NC(=O)[C@H](CSSC[C@H](NC(=O)[C@@H](N)CC(=O)O)C(=O)N[C@@H](CC(C)C)C(=O)NCC(=O)N[C@@H](Cc4ccccc4)C(=O)N[C@@H](CCSC)C(=O)N[C@@H](CCCNC(=N)N)C(=O)N[C@@H](CCCCN)C(=O)N2)NC(=O)[C@H](CSSC[C@@H](C(=O)N[C@@H](CCCCN)C(=O)N[C@@H](Cc2ccc(O)cc2)C(=O)N[C@H](C(=O)N[C@@H](Cc2ccccc2)C(=O)N[C@@H](Cc2ccc4ccccc4c2)C(N)=O)C(C)C)NC(=O)[C@H](Cc2c[nH]c4ccccc24)NC(=O)[C@H](CCCCN)NC(=O)[C@H](Cc2c[nH]cn2)NC(=O)[C@H]([C@@H](C)O)NC(=O)[C@H](CCCNC(=N)N)NC(=O)[C@H](CO)NC3=O)NC(=O)[C@H](CCCCN)NC(=O)[C@H](CC(=O)O)NC(=O)[C@H](CC(N)=O)NC(=O)[C@H](CC(=O)O)NC(=O)[C@@H]2CCCN2C1=O` [compound 131], the pIC50 is 7.70 on hNav1.3 (use-dependent, […]); 7.30 at hNav1.7 (setting [5]); 5.59 at hNav1.5 (use-dependent, […]).

`CC[C@H](C)[C@@H]1NC(=O)[C@@H]2CSSC[C@@H]3NC(=O)[C@H](C(C)C)NC(=O)[C@H](CC(C)C)NC(=O)[C@H](CC(N)=O)NC(=O)[C@@H]4CCCN4C(=O)[C@H](CCCNC(=N)N)NC(=O)[C@H](CSSC[C@H](NC(=O)[C@@H](N)CC(=O)O)C(=O)N[C@@H](CC(C)C)C(=O)NCC(=O)N[C@@H](C)C(=O)N[C@@H](CCSC)C(=O)N[C@@H](CCCNC(=N)N)C(=O)N[C@@H](CCCCN)C(=O)N2)NC(=O)[C@H](CSSC[C@@H](C(=O)N[C@@H](CCCCN)C(=O)N[C@@H](Cc2ccc(O)cc2)C(=O)N[C@H](C(=O)N[C@@H](Cc2ccccc2)C(N)=O)C(C)C)NC(=O)[C@H](Cc2c[nH]c4ccccc24)NC(=O)CNC(=O)[C@H](Cc2c[nH]cn2)NC(=O)[C@H]([C@@H](C)O)NC(=O)[C@H](CCCNC(=N)N)NC(=O)[C@H](CO)NC3=O)NC(=O)[C@H](CCCCN)NC(=O)[C@H](CC(=O)O)NC(=O)[C@H](CC(N)=O)NC(=O)[C@H](CC(=O)O)NC(=O)[C@@H]2CCCN2C1=O` [compound 715] (H-DCLGAMRKCIPDNDKCCRPNLVCSRTHGWCKYVF-NH2; disulfide 2-17, 9-23, 16-30): the pIC50 is below 5.30 at hNav1.3 (use-dependent block, hNav1.3); 6.00 on hNav1.7 (setting [4]); below 4.30 at hNav1.5 (use-dependent block, hNav1.5).

For the molecule `CC[C@H](C)[C@@H]1NC(=O)[C@@H]2CSSC[C@@H]3NC(=O)[C@H](C(C)C)NC(=O)[C@H](CC(C)C)NC(=O)[C@H](CC(N)=O)NC(=O)[C@@H]4CCCN4C(=O)[C@H](CCCNC(=N)N)NC(=O)[C@H](CSSC[C@H](NC(=O)[C@@H](N)CC(=O)O)C(=O)N[C@@H](CC(C)C)C(=O)NCC(=O)N[C@@H](C)C(=O)N[C@@H](CCSC)C(=O)N[C@@H](CCCNC(=N)N)C(=O)N[C@@H](CCCCN)C(=O)N2)NC(=O)[C@H](CSSC[C@@H](C(=O)N[C@@H](CCCCN)C(=O)N[C@@H](Cc2ccc(O)cc2)C(=O)N[C@H](C(=O)N[C@@H](Cc2ccccc2)C(N)=O)C(C)C)NC(=O)[C@H](Cc2c[nH]c4ccccc24)NC(=O)[C@H](CCC(N)=O)NC(=O)[C@H](Cc2c[nH]cn2)NC(=O)[C@H]([C@@H](C)O)NC(=O)[C@H](CCCNC(=N)N)NC(=O)[C@H](CO)NC3=O)NC(=O)[C@H](CCCCN)NC(=O)[C@H](CC(=O)O)NC(=O)[C@H](CC(N)=O)NC(=O)[C@H](CC(=O)O)NC(=O)[C@@H]2CCCN2C1=O` [compound 739] (H-DCLGAMRKCIPDNDKCCRPNLVCSRTHQWCKYVF-NH2; disulfide 2-17, 9-23, 16-30), the pIC50 at hNav1.3 (use-dependent block, hNav1.3) is 5.66; at hNav1.7 (setting [4]), 6.20; on hNav1.5 (use-dependent block, hNav1.5), 4.69.

Values taken from US9340590B2 (priority 2011, dated 2016).
